# In patent publication US6147073A, “Substituted tetralymethylen-Oxindoles analogues as tyrosine kinase inhibitors” (Pharmacia & Upjohn S.p.A., priority 1996, dated 2000):
# Where a name gives a salt, the structure may show the parent alone.
# Tests used:
# [1] = target: p45 v-abl tyrosine kinase; assay: p45 v-abl Kinase Assay ((Val^5)-angiotensin II phosphorylation); format: biochemical, Abelson murine leukemia virus; conditions: purified abl-kinase 40 ng; peptide 2 mM, ATP 50 μM; pH 8.0, 30° C.
# Experimental: The enzyme used in our tests is the p45 v-abl tyrosine kinase which represents the catalytic domain of the Abelson tyrosine kinase (isolated from the Abelson murine leukemia virus). The p45 v-abl kinase is produced and isolated as described by Wang et al. in J.Biol.Chem. 260, 64 (1985) and by Ferguson et al. in J.Biol.Chem. 260, 3652 (1985) and in Biochem.J. 257, 321 (1989).
# (Val^5)-angiotensin II phosphorylation is performed by incubation with 40 ng of purified abl-kinase and (γ-^32 P) ATP, in 50 μl of buffer containing Tris-HCl 25 mM, pH 8.0, MgCl2 10 mM and dithiothreitol 0.1 mM (kinase buffer). The reaction mixture is incubated for the indicated time at 30° C. and the reaction stopped by adding 50 μl of 5% trichloracetic acid. After a brief incubation on ice the tubes are centrifuged. The supernatants are spotted on phosphocellulase paper squares (Whatman P-81) and washed extensively in acetic acid. The radioactivity bound to dried phosphocellulose squares is measured in a liquid scintillation counter. IC50 values are calculated from triplicated determination of each experimental point. Each inhibitor is tested at concentrations ranging from […] in the presence of fixed concentrations of peptide (2 mM) and ATP (50 μM).
# [2] = test system: K562 cells; assay: K562 Cell Growth Inhibition Assay; format: cell-based; conditions: human myelogenous leukemia cell line, cell count after 72 h vs untreated control
# Experimental: K562 cells, a human myelogenous leukemia cell line, were seeded into a 24 wells tissue culture plate (Falcon 3047) (10000/well) in the presence of increasing concentrations of the compounds.
# After 72 h, cells were harvested and were counted using a cell counter (Coulter Counter-ZM). The percent of inhibition was evaluated in respect to the untreated control cells.
Structure (SMILES),IC50 [1],IC50 ([2]; K562),IC50 [2]
"CC(N)C(=O)Nc1ccc2c(c1)C(=Cc1cc(O)c3c(c1O)CCCC3)C(=O)N2 (centres unmarked) [5-(alanylamino)-3-(1,4-dihydroxy-2-tetralylmethylen)-2-oxindole]",10 µM,8.31 µM,
"CC(NC(=O)OC(C)(C)C)C(=O)Nc1ccc2c(c1)C(=Cc1cc(O)c3c(c1O)CCCC3)C(=O)N2 (centres unmarked) [5-(N-tert-butoxycarbonylalanylamino)-3-(1,4-dihydroxy-2-tetralylmethylen)-2-oxindole]",1.56 µM,5.86 µM,
"NC(CCC(=O)O)C(=O)Nc1ccc2c(c1)C(=Cc1cc(O)c3c(c1O)CCCC3)C(=O)N2 (centres unmarked) [5-(glutamylamino)-3-(1,4-dihydroxy-2-tetralylmethylen)-2-oxindole]",10 µM,,5.97 µM
"CC(N)C(=O)NC(C)C(=O)Nc1ccc2c(c1)C(=Cc1cc(O)c3c(c1O)CCCC3)C(=O)N2 (centres unmarked) [5-(alanylalanylamino)-3-(1,4-dihydroxy-2-tetralylmethylen)-2-oxindole trifluoroacetate]",3.12 µM,5.3 µM,
